Patent publication US12186424B2, “Compositions and methods for treating pterygium recurrence” (Cloudbreak Therapeutics, LLC, priority 2015, dated 2025)
“Also recorded” adds a separate entry of the source.

Tests used:
[1] = rabbits with corneal sutures dosed with sunitinib for 7 days (Perez-Santonja 2010); cited from earlier work
[2] = rabbit, in vivo
[3] = system: suture-induced neovascularization in the rabbit cornea; assay: Rabbit cornea suture model of neovascularization; assay type: in vivo
Description: The rabbit cornea suture model was established to assess drug effects on cornea neovascularization (Ko et al. Cornea. 2013; 32(5): 689-695; Perez-Santonj a et al. Am J Ophthalmol. 2010; 150(4):519-528). […] Thirty six female Zealand White rabbits were used to perform the study. […] The animals were treated in both eyes as described in Table 4. [table] During the study, the animals were closely observed for various ocular indications as well as general physical conditions including body weight. […] NIH ImageJ® software was used to analyze the ocular images. Each image was opened in ImageJ®, the scale was calibrated using the ruler in the photograph and the neovascularized area on the cornea near the suture was selected by the selection tool. […] The results were plotted as histograms of average with standard deviation for easy comparison.

[4] = system: corneal neovascularization (NV); assay: Human pterygium mouse model, corneal neovascularization score; assay type: in vivo, athymic nude mice; conditions: vs day 7 baseline, score 0 through 3, 0.2% nintedanib, 0.05% sunitinib, 0.002% mitomycin or combination
[5] = system: human pterygium epithelial cells (hPECs); assay: Human pterygium mouse model, corneal pterygium lesion size; conditions: vs day 7 baseline; 0.2% nintedanib, 0.05% sunitinib, 0.002% mitomycin or combination
Src = Src (Homo sapiens, UniProt P12931); conditions: sources as Table 1 footnote; cited from earlier work
Chain of Src (P12931 whole entry, species assumed): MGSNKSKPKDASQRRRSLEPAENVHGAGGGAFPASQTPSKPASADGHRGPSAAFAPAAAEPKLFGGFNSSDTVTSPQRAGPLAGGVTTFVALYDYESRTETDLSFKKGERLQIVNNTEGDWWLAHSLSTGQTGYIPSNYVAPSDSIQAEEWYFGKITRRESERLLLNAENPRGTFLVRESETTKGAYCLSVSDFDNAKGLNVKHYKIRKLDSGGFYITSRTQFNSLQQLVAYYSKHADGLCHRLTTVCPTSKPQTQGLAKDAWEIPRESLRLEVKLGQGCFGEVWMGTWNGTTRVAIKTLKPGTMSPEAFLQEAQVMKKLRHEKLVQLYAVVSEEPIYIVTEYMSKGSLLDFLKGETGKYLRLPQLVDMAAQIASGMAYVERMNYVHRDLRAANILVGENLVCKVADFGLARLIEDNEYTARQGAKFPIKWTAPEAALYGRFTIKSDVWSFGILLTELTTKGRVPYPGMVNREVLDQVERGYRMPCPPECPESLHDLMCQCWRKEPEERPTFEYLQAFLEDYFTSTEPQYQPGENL

[6] = 0.05% TID topical, Day 10 (after 2 days of treatment)
[7] = 0.05% TID topical, Day 12 (after 4 days of treatment)
[8] = 0.05% TID topical, Day 14 (after 6 days of treatment)
[9] = 0.05% BID topical, Day 10 (after 2 days of treatment)
[10] = 0.05% BID topical, Day 12 (after 4 days of treatment)
[11] = 0.05% BID topical, Day 14 (after 6 days of treatment)
[12] = 0.2% BID topical, Day 10 (after 2 days of treatment)
[13] = 0.2% BID topical, Day 12 (after 4 days of treatment)
[14] = 0.2% BID topical, Day 14 (after 6 days of treatment)
[15] = 0.2% TID topical, Day 10 (after 2 days of treatment)
[16] = 0.2% TID topical, Day 12 (after 4 days of treatment)
[17] = 0.2% TID topical, Day 14 (after 6 days of treatment)

CCN(CC)CCNC(=O)c1c(C)[nH]c(/C=C2\C(=O)Nc3ccc(F)cc32)c1C [Sunitinib]
Anterior chamber cellular reaction [1]: an anterior chamber cellular reaction was observed on day 1 | Iris surface staining (drug deposits) [1]: Iris surface yellowish staining, which represents sunitinib deposits on the iris surface was observed during the whole dosing period | Potential toxicity: abnormal lens with incomplete lenticular opacity [2]: abnormal lens with incomplete lenticular opacity was observed in one rabbit | Neovascular Area [3, 6]: 3.58 mm^2 | Neovascular Area Mean Percent Change over Day 7 Baseline (− sign indicates decrease) [3, 6]: 10.80% | Neovascular Area [3, 7]: 4.62 mm^2 | Neovascular Area Mean Percent Change over Day 7 Baseline (− sign indicates decrease) [3, 7]: 49.72% | Neovascular Area [3, 8]: 5.96 mm^2 | Neovascular Area Mean Percent Change over Day 7 Baseline (− sign indicates decrease) [3, 8]: 98.38%

CO[C@@]12[C@H](COC(N)=O)C3=C(C(=O)C(C)=C(N)C3=O)N1C[C@@H]1N[C@@H]12 [MMC]
Effect on corneal neovascularization score (in words) ([4]; listed as Mitomycin): reduced neovascularization score, with significant reductions on day 17 | Effect on corneal neovascularization score (in words) ([4]; listed as mitomycin): reduced the neovascularization on cornea and the reduction was significant comparing levels on day 17 vs the baseline on day 7 | Effect on pterygium lesion area on mouse cornea (in words) [5]: showed a trend of reduction in pterygium areas but didn't reach statistical significance at any of the time points; also recorded: showed a trend of reduction of pterygium lesion area but the differences at each time points from the day 7 baseline are not statistically significant

COc1cc2c(Oc3ccc4[nH]c(C)cc4c3F)ncnc2cc1OCCCN1CCCC1 [Cediranib]
IC50 (Src): 130 nM

COC(=O)c1ccc2c(c1)NC(=O)/C2=C(\Nc1ccc(N(C)C(=O)CN2CCN(C)CC2)cc1)c1ccccc1 [Nintedanib, Methyl (3Z)-3-{[(4-{methyl[(4-methylpiperazin-1-yl)acetyl]amino}phenyl)amino] (phenyl)methylidene}-2-oxo-2,3-dihydro-1H-indole-6-carboxylate]
Effect on corneal neovascularization score (in words) [4]: reduced neovascularization score on the cornea during the treatments with the level on day 17 showing a significant difference from the baseline on day 7 | Effect on corneal neovascularization score (in words) ([4]; listed as nintedanib): reduced the neovascularization on cornea and the reduction was significant comparing levels on day 17 vs the baseline on day 7 | Potential toxicity: abnormal lens with incomplete lenticular opacity [2]: none was observed | Effect on pterygium lesion area on mouse cornea (in words) [5]: led to a reduction of the pterygium area on day 14 and day 17 in comparison to the baseline level on day 7; also recorded: reduced pterygium lesion area on mouse cornea | Neovascular Area [3, 9]: 5.97 mm^2 | Neovascular Area Mean Percent Change over Day 7 Baseline (− sign indicates decrease) [3, 9]: 64.08% | Neovascular Area [3, 10]: 5.03 mm^2 | Neovascular Area Mean Percent Change over Day 7 Baseline (− sign indicates decrease) [3, 10]: 45.56% | Neovascular Area [3, 11]: 7.20 mm^2 | Neovascular Area Mean Percent Change over Day 7 Baseline (− sign indicates decrease) [3, 11]: 99.48% | Neovascular Area [3, 6]: 3.23 mm^2 | Neovascular Area Mean Percent Change over Day 7 Baseline (− sign indicates decrease) [3, 6]: 1.99% | Neovascular Area [3, 7]: 2.14 mm^2 | Neovascular Area Mean Percent Change over Day 7 Baseline (− sign indicates decrease) [3, 7]: −27.87% | Neovascular Area [3, 8]: 4.01 mm^2 | Neovascular Area Mean Percent Change over Day 7 Baseline (− sign indicates decrease) [3, 8]: 32.66% | Neovascular Area [3, 12]: 3.32 mm^2 | Neovascular Area Mean Percent Change over Day 7 Baseline (− sign indicates decrease) [3, 12]: 12.09% | Neovascular Area [3, 13]: 4.15 mm^2 | Neovascular Area Mean Percent Change over Day 7 Baseline (− sign indicates decrease) [3, 13]: 37.15% | Neovascular Area [3, 14]: 5.44 mm^2 | Neovascular Area Mean Percent Change over Day 7 Baseline (− sign indicates decrease) [3, 14]: 73.51% | Neovascular Area [3, 15]: 2.48 mm^2 | Neovascular Area Mean Percent Change over Day 7 Baseline (− sign indicates decrease) [3, 15]: −16.84% | Neovascular Area [3, 16]: 2.56 mm^2 | Neovascular Area Mean Percent Change over Day 7 Baseline (− sign indicates decrease) [3, 16]: −13.80% | Neovascular Area [3, 17]: 2.88 mm^2 | Neovascular Area Mean Percent Change over Day 7 Baseline (− sign indicates decrease) [3, 17]: −1.51% | Effect on suture-induced neovascularization in the rabbit cornea (in words) ([3]; 0.2% or 0.05% topical, BID or TID, days 8 to 15): marked inhibitory effect on suture-induced neovascularization in the rabbit cornea
